According to patent publication US20120015907A1, “Furopyridine compounds and uses thereof” (NOVARTIS AG, priority 2010, published 2012):
pIC50: −log10 of the molar value.

Each molecule was assayed against T1, HCV polymerase (Hepatitis C virus genotype 1b, UniProt Q9WMX2) (assay: biochemical). Conditions: NS5B polymerase IC50 μM, polymerase assay of Biological Example 1.
T1 construct: (His)6 (C)

Row | SMILES | IC50
1 | CCc1ccc(-c2oc3nc(N(CCCCCP(C)(=O)O)S(C)(=O)=O)c(I)cc3c2C(=O)NC)cc1 [Example 23.9997, 5-(N-(2-(4-ethylphenyl)-5-iodo-3-(methylcarbamoyl)furo[2,3-b]pyridin-6-yl)methylsulfonamido)pentyl (methyl)phosphinic acid] | 0.012 µM

Same assay, conditions: polymerase assay of Biological Example 1; read-out: NS5B polymerase IC50

Row | SMILES | pIC50
2 | CNC(=O)c1c(-c2ccc(C)cc2)oc2nc(N(CCCC(C)(OC)C(=O)O)S(C)(=O)=O)c(C3CC3)cc12 (stereo not drawn) [Example 29.9992, 5-(N-(5-cyclopropyl-3-(methylcarbamoyl)-2-p-tolylfuro[2,3-b]pyridin-6-yl)methylsulfonamido)-2-methoxy-2-methylpentanoic acid] | 8.40
3 | CCc1cc2c(C(=O)NC)c(-c3ccc(F)cc3)oc2nc1N(CCCS(=O)(=O)C(F)(F)F)S(C)(=O)=O [Example 23.96, 5-ethyl-2-(4-fluorophenyl)-N-methyl-6-(N-(3-(trifluoromethylsulfonyl)propyl)methylsulfonamido) furo[2,3-b]pyridine-3-carboxamide] | 6.72
4 | CNC(=O)c1c(-c2ccc(C)cc2)oc2nc(N(CCCC(=O)O)S(C)(=O)=O)c(C3CC3)cc12 [Example 28.9, 4-(N-(5-cyclopropyl-3-(methylcarbamoyl)-2-p-tolylfuro[2,3-b]pyridin-6-yl)methylsulfonamido) butanoic acid] | 8.70
5 | CCOC(=O)/C=C/CCCN(c1nc2oc(-c3ccc(C)cc3)c(C(=O)NC)c2cc1C1CC1)S(C)(=O)=O [Example 44.1, (E)-ethyl 6-(N-(5-cyclopropyl-3-(methylcarbamoyl)-2-p-tolylfuro[2,3-b]pyridin-6-yl)methylsulfonamido)hex-2-enoate] | 8.30
6 | CNC(=O)c1c(-c2ccc(F)cc2)oc2nc(N(C)S(C)(=O)=O)c(CCCCC(N)=O)cc12 [Example 4.95, 5-(5-amino-5-oxopentyl)-2-(4-fluorophenyl)-N-methyl-6-(N-methylmethylsulfonamido)furo[2,3-b]pyridine-3-carboxamide] | 7.80
7 | CNC(=O)c1c(-c2ccc(C)cc2)oc2nc(N(CCOCCC3(C(=O)O)CCOCC3)S(C)(=O)=O)c(C3CC3)cc12 [Example 29.99995, 4-(2-(2-(N-(5-cyclopropyl-3-(methylcarbamoyl)-2-p-tolylfuro[2,3-b]pyridin-6-yl)methylsulfonamido)ethoxy)ethyl)tetrahydro-2H-pyran-4-carboxylic acid] | 7.49
8 | CNC(=O)c1c(-c2ccc(C)cc2)oc2nc(N(CCCC3(C(=O)O)CCN(C(=O)C(C)(C)C)CC3)S(C)(=O)=O)c(C3CC3)cc12 [Example 29.999992, 4-(3-(N-(5-cyclopropyl-3-(methylcarbamoyl)-2-p-tolylfuro[2,3-b]pyridin-6-yl)methylsulfonamido)propyl)-1-pivaloylpiperidine-4-carboxylic acid] | 8.15
9 | CNC(=O)c1c(-c2ccc(C)cc2)oc2nc(N(CCCc3nn[nH]n3)S(C)(=O)=O)c(C3CC3)cc12 [Example 29.92, 6-(N-(3-(2H-tetrazol-5-yl)propyl)methylsulfonamido)-5-cyclopropyl-N-methyl-2-p-tolylfuro[2,3-b]pyridine-3-carboxamide] | 8.70
10 | CNC(=O)c1c(-c2ccc(C)cc2)oc2nc(N(CCCCN)S(C)(=O)=O)c(C3CC3)cc12 [Example 23.999993, 6-(N-(4-aminobutyl)methylsulfonamido)-5-cyclopropyl-N-methyl-2-p-tolylfuro[2,3-b]pyridine-3-carboxamide] | 7.80
11 | CNC(=O)c1c(-c2ccccn2)oc2nc(N(C)S(C)(=O)=O)c(I)cc12 [Example 2.3, 5-iodo-N-methyl-6-(N-methylmethylsulfonamido)-2-(pyridin-2-yl)furo[2,3-b]pyridine-3-carboxamide] | 6.39
12 | CCc1cc2c(C(=O)NC)c(-c3ccc(F)cc3)oc2nc1N(CCCCOc1ccccc1C#N)S(C)(=O)=O [Example 21.96, 6-(N-(4-(2-cyanophenoxy)butyl)methylsulfonamido)-5-ethyl-2-(4-fluorophenyl)-N-methylfuro[2,3-b]pyridine-3-carboxamide] | 7.14
13 | CNC(=O)c1c(-c2ccc(F)cc2)oc2nc(N(CCCNS(=O)(=O)c3ccccc3[N+](=O)[O-])S(C)(=O)=O)c(I)cc12 [Example 23.993, 2-(4-fluorophenyl)-5-iodo-N-methyl-6-(N-(3-(2-nitrophenylsulfonamido)propyl)methylsulfonamido) furo[2,3-b]pyridine-3-carboxamide] | 6.90
14 | CCc1cc2c(C(=O)NC)c(-c3ccc(F)cc3)oc2nc1N(CCc1ccc(OC)cc1)S(C)(=O)=O [Example 21.993, 5-ethyl-2-(4-fluorophenyl)-6-(N-(4-methoxyphenethyl)methylsulfonamido)-N-methylfuro[2,3-b]pyridine-3-carboxamide] | 6.64
15 | CCc1cc2c(C(=O)NC)c(-c3ccc(F)cc3)oc2nc1N(CCc1ccc(OC)c(OC)c1)S(C)(=O)=O [Example 22.2, 6-(N-(3,4-dimethoxyphenethyl)methylsulfonamido)-5-ethyl-2-(4-fluorophenyl)-N-methylfuro[2,3-b]pyridine-3-carboxamide] | 6.55
16 | CCc1cc2c(C(=O)NC)c(-c3ccc(F)cc3)oc2nc1N(CCCC#N)S(C)(=O)=O [Example 21.991, 6-(N-(3-cyanopropyl)methylsulfonamido)-5-ethyl-2-(4-fluorophenyl)-N-methylfuro[2,3-b]pyridine-3-carboxamide] | 7.13
17 | CCc1cc2c(C(=O)NC)c(-c3ccc(F)cc3)oc2nc1N(CCCN1CCN(C)C1=O)S(C)(=O)=O [Example 21.94, 5-ethyl-2-(4-fluorophenyl)-N-methyl-6-(N-(3-(3-methyl-2-oxoimidazolidin-1-yl)propyl)methylsulfonamido)furo[2,3-b]pyridine-3-carboxamide] | 7.11
18 | CNC(=O)c1c(-c2ccc(F)cc2)oc2nc(N(C)S(C)(=O)=O)c(C(C)C(F)(F)F)cc12 (stereo not drawn) [Example 6.1, 2-(4-fluorophenyl)-N-methyl-6-(N-methylmethylsulfonamido)-5-(1,1,1-trifluoropropan-2-yl)furo[2,3-b]pyridine-3-carboxamide] | 7.37
19 | CNC(=O)c1c(-c2ccc(C)cc2)oc2nc(N(CCOCC(C)(C)C(=O)O)S(C)(=O)=O)c(C3CC3)cc12 [Example 41, 3-(2-(N-(5-cyclopropyl-3-(methylcarbamoyl)-2-p-tolylfuro[2,3-b]pyridin-6-yl)methylsulfonamido)ethoxy)-2,2-dimethylpropanoic acid] | 8.52
20 | CCc1cc2c(C(=O)NC)c(-c3ccc(F)cc3)oc2nc1N(CC1CCN(C(=O)OC(C)(C)C)CC1)S(C)(=O)=O [Example 21.997, tert-butyl 4-((N-(5-ethyl-2-(4-fluorophenyl)-3-(methylcarbamoyl)furo[2,3-b]pyridin-6-yl)methylsulfonamido)methyl)piperidine-1-carboxylate] | 6.83
21 | CCc1cc2c(C(=O)NC)c(-c3ccc(F)cc3)oc2nc1N(CCCCC1=C(O)CCC1=O)S(C)(=O)=O [Example 23.94, 5-ethyl-2-(4-fluorophenyl)-6-(N-(4-(2-hydroxy-5-oxocyclopent-1-enyl)butyl)methylsulfonamido)-N-methylfuro[2,3-b]pyridine-3-carboxamide] | 7.36
22 | CCc1cc2c(C(=O)NC)c(-c3ccc(F)cc3)oc2nc1N(CC[C@H]1COc2c(OC)cccc21)S(C)(=O)=O [Example 22.9, (R)-5-ethyl-2-(4-fluorophenyl)-6-(N-(2-(7-methoxy-2,3-dihydrobenzofuran-3-yl)ethyl)methylsulfonamido)-N-methylfuro[2,3-b]pyridine-3-carboxamide] | 7.64
23 | CNC(=O)c1c(-c2ccc(C)cc2)oc2nc(N(CCCCC(C)(C)C(=O)O)S(C)(=O)=O)c(C3CC3)cc12 [Example 29.2, 6-(N-(5-cyclopropyl-3-(methylcarbamoyl)-2-p-tolylfuro[2,3-b]pyridin-6-yl)methylsulfonamido)-2,2-dimethylhexanoic acid] | 9.00
24 | CCc1cc2c(C(=O)NC)c(-c3ccc(F)cc3)oc2nc1N(C[C@@H](C)Cc1ccc(OC)nc1)S(C)(=O)=O [Example 21.6, (S)-5-ethyl-2-(4-fluorophenyl)-6-(N-(3-(6-methoxypyridin-3-yl)-2-methylpropyl)methylsulfonamido)-N-methylfuro[2,3-b]pyridine-3-carboxamide] | 6.02
25 | CNC(=O)c1c(-c2ccc(C)cc2)oc2nc(N(C)S(C)(=O)=O)c(CC(O)CO)cc12 (stereo not drawn) [Example 9.1, 5-(2,3-dihydroxypropyl)-N-methyl-6-(N-methylmethylsulfonamido)-2-p-tolylfuro[2,3-b]pyridine-3-carboxamide] | 6.93
26 | CCc1cc2c(C(=O)NC)c(-c3ccc(F)cc3)oc2nc1N(CCCN(C)S(=O)(=O)c1ccccc1)S(C)(=O)=O [Example 23.9, 5-ethyl-2-(4-fluorophenyl)-N-methyl-6-(N-(3-(N-methylphenylsulfonamido)propyl)methylsulfonamido) furo[2,3-b]pyridine-3-carboxamide] | 7.13
27 | CNC(=O)c1c(-c2ccc(F)cc2)oc2nc(N(C)S(C)(=O)=O)c(C)cc12 [Example 2.92, 2-(4-fluorophenyl)-N,5-dimethyl-6-(N-methylmethylsulfonamido)furo[2,3-b]pyridine-3-carboxamide] | 6.59
28 | CNC(=O)c1c(-c2ccc(F)cc2)oc2nc(N(C)S(C)(=O)=O)c(CCCC(=O)N3CCC[C@H]3C(=O)OC)cc12 [Example 4.1, (S)-methyl 1-(4-(2-(4-fluorophenyl)-3-(methylcarbamoyl)-6-(N-methylmethylsulfonamido)furo[2,3-b]pyridin-5-yl)butanoyl)pyrrolidine-2-carboxylate] | 6.95
29 | CNC(=O)c1c(-c2ccc(F)cc2)oc2nc(N(C)S(C)(=O)=O)c(CCCCC(=O)N3CCC[C@H]3C(=O)OC)cc12 [Example 4.6, (S)-methyl 1-(5-(2-(4-fluorophenyl)-3-(methylcarbamoyl)-6-(N-methylmethylsulfonamido)furo[2,3-b]pyridin-5-yl)pentanoyl)pyrrolidine-2-carboxylate] | 6.95
30 | CNC(=O)c1c(-c2ccc(C)cc2)oc2nc(N(CCOCCBr)S(C)(=O)=O)c(C3CC3)cc12 [Example 29.99994, 6-(N-(2-(2-bromoethoxy)ethyl)methylsulfonamido)-5-cyclopropyl-N-methyl-2-p-tolylfuro[2,3-b]pyridine-3-carboxamide] | 8.15
